Results reported in patent US20170367330A1, “Method for stimulating induced insect resistance of rice” (ZHENJIANG UNIVERSITY, priority 2015, published 2017).

Columns and labels:
Format in all cases: in vivo
[1] = system: nymphs of the white-backed planthopper; experiment: Root absorption treatment of rice, survival of white-backed planthopper nymphs
Procedure: (§1) According to the first preferred embodiment of the present invention, the applied p-Fluorophenoxyacetic acids have concentrations of 1 mg/L and 10 mg/L. The rice is cultivated through the nutrient solution, and planted by each individual rice plant; the p-Fluorophenoxyacetic acid is added into the nutrient solution until a final concentration is 1 mg/L or 10 mg/L; and the nutrient solution without adding the p-Fluorophenoxyacetic acid is adopted as a control group. After treating with the p-Fluorophenoxyacetic acid for 12 hours, a special glass cover (with a diameter of 4 cm, a height of 8 cm, and 48 holes having a diameter of 0.8 mm uniformly provided on a wall) is placed on a stem of each individual rice plant, and 15 newly-hatched nymphs of the brown planthopper or the white-backed planthopper are introduced into each glass cover, wherein a top part of each glass cover is sealed by a circular sponge. The experiment is conducted in a phytotron with a temperature of 28±2° C., a humidity of 70-80% and 14 hours of illumination, survival numbers of the nymphs of the brown planthopper or the white-backed planthopper on each plant are recorded daily, and the experiment is repeated for 10 times.

[2] = system: contents of 4-hydroxybenzoic acid and γ-aminobutyric acid in the rice; experiment: Induced mechanism: contents of defense compounds in rice after root treatment; details: 5 mg/L in nutrient solution, 72 hours after treating
Procedure: According to the fourth preferred embodiment of the present invention, the applied p-Fluorophenoxyacetic acid has a concentration of 5 mg/L. The rice is cultivated through the nutrient solution, and planted by each individual rice plant; the p-Fluorophenoxyacetic acid is added into the nutrient solution of the rice until a final concentration is 5 mg/L, and another nutrient solution without adding the p-Fluorophenoxyacetic acid is adopted as a control group. The experiment is repeated for 5 times and conduced in a phytotron with a temperature of 28±2° C., a humidity of 70-80%, and 14 hours of illumination. […] The 4-hydroxybenzoic acid belongs to a phenolic acid defense compound, and the γ-aminobutyric acid belongs to a non-protein amino acid, which have direct toxicity effects on the insect pests and are able to influence a peripheral nervous system of the insects. Treating the rice with the p-Fluorophenoxyacetic acid is able to increase contents of the defense compounds, thereby generating a negative effect on the insect pests and increasing a resistance of the rice against the insect pests.

[3] = system: nymphs of the white-backed planthopper; experiment: Stomach toxicity in planthopper artificial diet; details: for survival rate of the nymphs of the white-backed planthopper: artificial diet
Excerpt: In order to exclude possible influences of the p-Fluorophenoxyacetic acid itself on a survival rate of nymphs of the rice planthoppers, the third preferred embodiment of the present invention measures stomach toxicity and contact toxicity of the p-Fluorophenoxyacetic acids having different concentrations on the nymphs of the rice planthoppers. In the experiment for measuring the stomach toxicity of the p-Fluorophenoxyacetic acid on the nymphs of the rice planthoppers, the p-Fluorophenoxyacetic acids, having concentrations of 5 mg/L, 20 mg/L and 50 mg/L, are respectively added into planthopper artificial diets, and another planthopper artificial diet not containing the p-Fluorophenoxyacetic acid is adopted as control. The planthopper artificial diets containing the p-Fluorophenoxyacetic acids of different concentrations are respectively wrapped by a Parafilm sealing film and then placed at two ends (20 μL at one end) of a glass two-way tube having a diameter of 4 cm and a height of 8 cm, and 15 newly-hatched nymphs of the white-backed planthopper are introduced into each tube; wherein the glass two-way tube, in which the planthopper artificial diet not containing the p-Fluorophenoxyacetic acid is placed, is adopted as a control group. All the glass two-way tubes are placed in a phytotron (with a temperature of 28° C. and 12 hours of illumination), the artificial diet in each tube is changed once a day, and the survival number of the nymphs of the white-backed planthopper in each tube is recoded daily. The experiment is repeated for 10 times.

[4] = system: nymphs of the brown planthopper; experiment: Root absorption treatment of rice, survival of brown planthopper nymphs; details: for survival rate of the brown planthopper: 8th day
Procedure: as §1

[5] = system: nymphs of the brown planthopper; experiment: Spray treatment of rice stems and leaves, survival of brown planthopper nymphs; details: for survival rate of the brown planthopper: 8th day
Procedure: (§2) According to the second preferred embodiment of the present invention, the applied p-Fluorophenoxyacetic acids have concentrations of 20 mg/L and 100 mg/L. The rice is cultivated through the nutrient solution, and planted by each individual rice plant; the p-Fluorophenoxyacetic acid is prepared with water to have a certain concentration (20 mg/L or 100 mg/L), and thereafter stems and leaves of the rice are treated with spraying through a small sprayer; and tap water is adopted as a control group. After drops on the stems and leaves of the rice are totally dry, a special glass cover (with a diameter of 4 cm, a height of 8 cm, and 48 holes having a diameter of 0.8 mm uniformly provided on a wall) is placed on a stem of each individual rice plant, and 15 newly-hatched nymphs of the brown planthopper or the white-backed planthopper are introduced into each glass cover, wherein a top part of each glass cover is sealed by a circular sponge. The experiment is conducted in a phytotron with a temperature of 28±2° C., a humidity of 70-80% and 14 hours of illumination, survival numbers of the nymphs of the brown planthopper and the white-backed planthopper on each plant are recorded daily, and the experiment is repeated for 10 times.

[6] = system: Third-instar nymphs of the white-backed planthopper; experiment: Contact toxicity, spotting on third-instar nymphs; details: for survival rates of the nymphs of the planthoppers: spotted 1 μL
Procedure: In the experiment for measuring the contact toxicity of the p-Fluorophenoxyacetic acid on the nymphs of the rice planthoppers, the p-Fluorophenoxyacetic acids respectively having concentrations of 5 mg/L, 20 mg/L, and 50 mg/L are adopted, and distilled water not containing the p-Fluorophenoxyacetic acid is adopted as a control group. Third-instar nymphs of the white-backed planthopper, being narcotized by carbon dioxide, are spotted with the p-Fluorophenoxyacetic acid having the corresponding concentration or the distilled water (1 μL for each planthopper); after waking up, the planthoppers are fed on rice plants having an age of 30 days, wherein 15 planthoppers are fed on each rice plant; and the rice is placed in a phytotron with a temperature of 28±2° C., a humidity of 70-80% and 14 hours of illumination. The experiment is repeated for 10 times. Survival numbers of the nymphs of the planthoppers are observed and recorded respectively 24 hours and 48 hours after treatment.

[7] = system: nymphs of the white-backed planthopper; experiment: Spray treatment of rice stems and leaves, survival of white-backed planthopper nymphs
Procedure: as §2

[8] = from the 2nd day after treating, FIG. 2

Q: `O=C(O)COc1ccc(F)cc1` [p-Fluorophenoxyacetic acid] was tested. Which “survival rate of the white-backed planthopper” value ([1]; 1 mg/L in nutrient solution, 8th day) did it give?
A: Its value is 41.3%.

Q: What about the “survival rate of white-backed planthopper nymphs” value ([1]; 10 mg/L in nutrient solution, 8th day) of the same compound?
A: Its value is 3.1%.

Q: What about the “survival rates of the nymphs of the white-backed planthopper, course” value ([1]; from the 2nd day after treating, FIG. 1) of the same compound?
A: The value was “decreased obviously”.

Q: What about the “content of the 4-hydroxybenzoic acid of the experimental group versus the control group” value [2] of the same compound?
A: Its value is 2.12 times.

Q: What about the “content of the γ-aminobutyric acid of the experimental group versus the control group” value [2] of the same compound?
A: Its value is 2.86 times.

Q: And the “survival rate of the nymphs of the white-backed planthopper” value ([3]; 5 mg/L, 2nd day)?
A: The value was 85.5%.

Q: What about the “survival rate of the nymphs of the white-backed planthopper” value ([3]; 5 mg/L, 4th day) of the same compound?
A: Its value is 58.6%.

Q: And the “survival rate of the nymphs of the white-backed planthopper” value ([3]; 20 mg/L, 2nd day)?
A: The value was 87.4%.

Q: What about the “survival rate of the nymphs of the white-backed planthopper” value ([3]; 20 mg/L, 4th day) of the same compound?
A: Its value is 54.3%.

Q: And the “survival rate of the nymphs of the white-backed planthopper” value ([3]; 50 mg/L, 2nd day)?
A: The value was 81.3%.

Q: And the “survival rate of the nymphs of the white-backed planthopper” value ([3]; 50 mg/L, 4th day)?
A: Its value is 57.6%.

Q: What about the “stomach toxicity on the planthoppers” value ([3]; artificial diet, 5, 20 and 50 mg/L) of the same compound?
A: Its value is “no stomach toxicity”.

Q: What about the “survival rate of nymphs of the rice planthoppers, maximum decrease” value ([4]; general statement in the summary, rice planthoppers, concentration not given) of the same compound?
A: Its value is “below 10%”.

Q: What about the “survival rate of the brown planthopper” value ([4]; root absorption, 1 mg/L in nutrient solution) of the same compound?
A: The value was 35.1%.

Q: And the “survival rate of the brown planthopper” value ([4]; root absorption, 10 mg/L in nutrient solution)?
A: Its value is 1.5%.

Q: And the “survival rates of the nymphs of the brown planthopper, course” value ([4]; root absorption, from the 2nd day after treating, FIG. 1)?
A: Its value is “decreased obviously”.

Q: And the “survival rate of the brown planthopper” value ([5]; 20 mg/L)?
A: The value was 60.3%.

Q: And the “survival rate of the brown planthopper” value ([5]; 100 mg/L)?
A: Its value is 19.2%.

Q: And the “survival rates of the nymphs of the brown planthopper, course” value [5, 8]?
A: Its value is “decreased obviously”.

Q: What about the “survival rates of the nymphs of the planthoppers” value ([6]; 5 mg/L, 24 hours after treating) of the same compound?
A: The value was 92.0%.

Q: What about the “survival rates of the nymphs of the planthoppers” value ([6]; 5 mg/L, 48 hours after treating) of the same compound?
A: Its value is 92.0%.

Q: What about the “survival rates of the nymphs of the planthoppers” value ([6]; 20 mg/L, 24 hours after treating) of the same compound?
A: The value was 93.1%.

Q: And the “survival rates of the nymphs of the planthoppers” value ([6]; 20 mg/L, 48 hours after treating)?
A: The value was 91.6%.

Q: And the “survival rates of the nymphs of the planthoppers” value ([6]; 50 mg/L, 24 hours after treating)?
A: Its value is 92.0%.

Q: What about the “survival rates of the nymphs of the planthoppers” value ([6]; 50 mg/L, 48 hours after treating) of the same compound?
A: The value was 90.8%.

Q: And the “contact toxicity on the planthoppers” value ([6]; spotted 1 μL, 5, 20 and 50 mg/L)?
A: The value was “no contact toxicity”.

Q: And the “survival rate of the white-backed planthopper” value ([7]; 20 mg/L, 8th day)?
A: The value was 66.1%.

Q: What about the “survival rate of the white-backed planthopper nymphs” value ([7]; 100 mg/L, 8th day) of the same compound?
A: Its value is 23.2%.

Q: And the “survival rates of the nymphs of the white-backed planthopper, course” value [7, 8]?
A: Its value is “decreased obviously”.
